The test relates to nude mice, HT29 intrarenal xenograft, tumor weight T/C. As to the kind of experiment: NCI In Vivo Anticancer Drug Screen. Data for tumor model HT29;CX-1 Human Adenocarcinoma (MER+) (intrarenal inoculation) in NU/NU Swiss (nude) mice. The following applies: endpoint: mean tumor weight change, higher = larger tumour. In a few lines: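 T/C = treated-group value ÷ vehicle-group value, using tumor size or survival.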

[1] abbreviates: dose: 300.0 mg/kg/injection, schedule: Q04DX004 (sc), vehicle: saline.
The mark [2] stands for this setting: dose: 75.0 mg/kg/injection, schedule: Q04DX004 (sc), vehicle: saline with Tween-80.
Setting [3] is: dose: 150.0 mg/kg/injection, schedule: Q04DX004 (sc), vehicle: saline with Tween-80.
Setting [4] is: dose: 600.0 mg/kg/injection, schedule: Q04DX004 (sc), vehicle: saline with Tween-80.
Setting [5] is: dose: 100.0 mg/kg/injection, schedule: Q01DX010 (sc), vehicle: saline with Tween-80.
The mark [6] stands for this setting: dose: 150.0 mg/kg/injection, schedule: Q04DX004 (sc), vehicle: Klucel (hydroxypropylcellulose) (HPC).
Setting [7] is: dose: 600.0 mg/kg/injection, schedule: Q04DX004 (sc), vehicle: Klucel (hydroxypropylcellulose) (HPC).
Setting [8] is: dose: 37.5 mg/kg/injection, schedule: Q04DX004 (sc), vehicle: saline.
[9] abbreviates: dose: 75.0 mg/kg/injection, schedule: Q04DX004 (sc), vehicle: saline.
Setting [10] is: dose: 200.0 mg/kg/injection, schedule: Q04DX004 (sc), vehicle: saline.

Values joined by “and” are separate entries in the source; they are usually repeats but may differ in a detail not shown here. Equal values may be shown once. Records with an inconclusive call do not appear. Residues, ends and D or L forms follow the SMILES beside them. *: point of attachment. Trt = c1ccc(C(c2ccccc2)(c2ccccc2)*)cc1; Cbz = O=C(OCc1ccccc1)*

This is an account of results in PubChem BioAssay AID206 (DTP/NCI, 2004).

For `CC1=NN(c2cccc(S(=O)(=O)O)c2)C(=O)C1N=Nc1cc(Cl)cc(S(=O)(=O)O)c1O.CC1=NN(c2cccc(S(=O)(=O)O)c2)C(=O)C1N=Nc1cc(Cl)cc(S(=O)(=O)O)c1O.[Cr]` (stereo unspecified), the T/C by setting is: (dose: 150.0 mg/kg/injection, schedule: Q04DX004 (sc), vehicle: saline) 94 % of control; under setting [1], 121 % of control; (dose: 600.0 mg/kg/injection, schedule: Q04DX004 (sc), vehicle: saline) 61 % of control.
On to `COc1ccc(-c2csc(=[N+]3CCCCC3)s2)cc1`, for which the T/C (dose: 6.25 mg/kg/injection, schedule: Q04DX004 (sc), vehicle: water) was 227 % of control and the T/C (dose: 12.5 mg/kg/injection, schedule: Q04DX004 (sc), vehicle: water) is 118 % of control.
As for `C[C@]12CC[C@H](O)CC1=CC[C@@H]1[C@@H]2CC[C@]2(C)C(=O)CC[C@@H]12`, the T/C is 110 % of control under setting [2]; 180 % of control under setting [3]; 54 % of control (dose: 300.0 mg/kg/injection, schedule: Q04DX004 (sc), vehicle: saline with Tween-80); 67 % of control under setting [4].
As to `CC[PH+](CC)CC[S-].CC[PH+](CC)CC[S-].[Au+].[Au+]`, for the setting “dose: 160.0 mg/kg/injection, schedule: Q04DX004 (sc), vehicle: Klucel (hydroxypropylcellulose) (HPC)”, the T/C was 152 % of control.
For the compound `NC(Cc1ccc(N(CCCl)CCCl)cc1)C(=O)O` (stereo unspecified), the T/C was 70 % of control (dose: 5.0 mg/kg/injection, schedule: Q04DX004 (sc), vehicle: Klucel (hydroxypropylcellulose) (HPC)); 36 % of control and 53 % of control (dose: 10.0 mg/kg/injection, schedule: Q04DX004 (sc), vehicle: Klucel (hydroxypropylcellulose) (HPC)); -16 % of control (dose: 20.0 mg/kg/injection, schedule: Q04DX004 (sc), vehicle: Klucel (hydroxypropylcellulose) (HPC)).
As for `OC1OC2COC(c3ccccc3)OC2C(O)C1O` (stereo unspecified), the T/C (dose: 200.0 mg/kg/injection, schedule: Q04DX004 (sc), vehicle: water) is 94 % of control; the T/C (dose: 400.0 mg/kg/injection, schedule: Q04DX004 (sc), vehicle: water) is 118 % of control; the T/C (dose: 800.0 mg/kg/injection, schedule: Q04DX004 (sc), vehicle: water) was 87 % of control; the T/C (dose: 1600.0 mg/kg/injection, schedule: Q04DX004 (sc), vehicle: water) is 118 % of control.
With `CCN(CC)CCNc1ccc(C)c2sc3ccc(O)cc3c(=O)c12`, the T/C is, setting by setting: under setting [2], 53 % of control; under setting [3], 74 % of control; under setting [4], 103 % of control; (dose: 1200.0 mg/kg/injection, schedule: Q04DX004 (sc), vehicle: saline with Tween-80) 41 % of control; (dose: 2400.0 mg/kg/injection, schedule: Q04DX004 (sc), vehicle: saline with Tween-80) 58 % of control.
For `Cc1c2ccc3ccccc3c2c[n+]2ccccc12`, the T/C runs as follows: (dose: 3.75 mg/kg/injection, schedule: Q04DX004 (sc), vehicle: Klucel (hydroxypropylcellulose) (HPC)) 84 % of control; (dose: 7.5 mg/kg/injection, schedule: Q04DX004 (sc), vehicle: Klucel (hydroxypropylcellulose) (HPC)) 66 % of control; (dose: 15.0 mg/kg/injection, schedule: Q04DX004 (sc), vehicle: Klucel (hydroxypropylcellulose) (HPC)) 50 % of control; (dose: 30.0 mg/kg/injection, schedule: Q04DX004 (sc), vehicle: Klucel (hydroxypropylcellulose) (HPC)) 41 % of control.
Consider `CCC1=C[C@H]2CN(CCc3c([nH]c4ccccc34)[C@@](C(=O)OC)(c3cc4c(cc3OC)N(C)[C@H]3[C@@](O)(C(=O)NC)[C@H](OC(C)=O)[C@]5(CC)C=CCN6CC[C@]43[C@@H]65)C2)C1`, for which the T/C reads like this: (dose: 1.0 mg/kg/injection, schedule: Q04DX004 (sc), vehicle: water) 106 % of control; (dose: 2.0 mg/kg/injection, schedule: Q04DX004 (sc), vehicle: water) 28 % of control; (dose: 4.0 mg/kg/injection, schedule: Q04DX004 (sc), vehicle: water) -20 % of control.
`C/C(=N/NC(N)=S)c1ccc2ccccc2c1`: the T/C (dose: 12.5 mg/kg/injection, schedule: Q01DX010 (sc), vehicle: saline with Tween-80) is 177 % of control; the T/C (dose: 25.0 mg/kg/injection, schedule: Q01DX010 (sc), vehicle: saline with Tween-80) is 70 % of control; the T/C (dose: 50.0 mg/kg/injection, schedule: Q01DX010 (sc), vehicle: saline with Tween-80) is 57 % of control; the T/C under setting [5] is 89 % of control.
As to `CCCCCCCCCCS(=O)CC(CO)NC(=O)/C=C/c1c(C)[nH]c(=O)[nH]c1=O` (stereo unspecified), the T/C by setting is: (dose: 9.38 mg/kg/injection, schedule: Q04DX004 (sc), vehicle: distilled water + Tween-80) 90 % of control; (dose: 18.75 mg/kg/injection, schedule: Q04DX004 (sc), vehicle: distilled water + Tween-80) 100 % of control; (dose: 37.5 mg/kg/injection, schedule: Q04DX004 (sc), vehicle: distilled water + Tween-80) 80 % of control.
As to `CC1(C)OCC(CO)(Nc2nc(N3CC3)nc(N3CC3)n2)CO1`, the T/C (dose: 2.0 mg/kg/injection, schedule: Q04DX004 (sc), vehicle: saline) is 76 % of control.
With `CC(C)CC(=O)NC(C(=O)NC(C(=O)NC(CC(C)C)C(O)CC(=O)NC(C)C(=O)NC(CC(C)C)C(O)CC(=O)O)C(C)C)C(C)C` (stereo unspecified), the T/C runs as follows: under setting [6], 102 % of control; (dose: 300.0 mg/kg/injection, schedule: Q04DX004 (sc), vehicle: Klucel (hydroxypropylcellulose) (HPC)) 87 % of control; under setting [7], 69 % of control.
On to `CCCCCCCCCCCCCCCCP(=O)(OCCOCCCCCC)OCCOCCCCCC`, for which the T/C under setting [8] is 206 % of control, the T/C under setting [9] was 93 % of control and the T/C under setting [1] was 178 % of control.
Regarding `C[C@]12C=CC(=O)C=C1CC[C@@H]1[C@@H]2C(=O)C[C@@]2(C)[C@H]1CC[C@]2(O)C(=O)CO`, the T/C by setting is: under setting [6], 18 % of control; under setting [7], 27 % of control; (dose: 1200.0 mg/kg/injection, schedule: Q04DX004 (sc), vehicle: Klucel (hydroxypropylcellulose) (HPC)) 19 % of control.
For `NCCc1cc(O)c(O)c(O)c1`, the T/C is 92 % of control under setting [10]; 120 % of control (dose: 400.0 mg/kg/injection, schedule: Q04DX004 (sc), vehicle: saline); 101 % of control (dose: 800.0 mg/kg/injection, schedule: Q04DX004 (sc), vehicle: saline); 61 % of control (dose: 1600.0 mg/kg/injection, schedule: Q04DX004 (sc), vehicle: saline).
In the case of `COc1cc(NCCCCCCCNC(C)C)c2nccc(C)c2c1`, the T/C is, setting by setting: (dose: 18.7 mg/kg/injection, schedule: Q04DX004 (sc), vehicle: saline) 56 % of control; under setting [8], 85 % of control; under setting [9], 71 % of control.
Regarding `CC1OC1C(=O)C1(O)C(C)C(O)C23OC2(C(O)c2c(O)cccc2C3=O)C1O` (stereo unspecified), the T/C was 172 % of control (dose: 12.0 mg/kg/injection, schedule: Q04DX004 (sc), vehicle: Klucel (hydroxypropylcellulose) (HPC)); 99 % of control (dose: 24.0 mg/kg/injection, schedule: Q04DX004 (sc), vehicle: Klucel (hydroxypropylcellulose) (HPC)); 92 % of control (dose: 48.0 mg/kg/injection, schedule: Q04DX004 (sc), vehicle: Klucel (hydroxypropylcellulose) (HPC)).
For `OCCN1CCN(CC/C=C2/c3ccccc3Sc3ccc(Cl)cc32)CC1`, the T/C (dose: 25.0 mg/kg/injection, schedule: Q04DX004 (sc), vehicle: saline) was 160 % of control; the T/C (dose: 50.0 mg/kg/injection, schedule: Q04DX004 (sc), vehicle: saline) is 87 % of control; the T/C (dose: 100.0 mg/kg/injection, schedule: Q04DX004 (sc), vehicle: saline) was 82 % of control; the T/C under setting [10] was 40 % of control.
As to `C[C@@H](CN1CC(=O)NC(=O)C1)N1CC(=O)NC(=O)C1`, the T/C was 232 % of control under setting [5] and 46 % of control (dose: 200.0 mg/kg/injection, schedule: Q01DX010 (sc), vehicle: saline with Tween-80).
Take `COC(=O)C(CSC(c1ccccc1)(c1ccccc1)c1ccccc1)NC(=O)C(CC(N)=O)NC(=O)OCc1ccccc1` (stereo not drawn) (Cbz-Asn-Cys(Trt)-OMe; configuration not given here): the T/C runs as follows: (dose: 150.0 mg/kg/injection, schedule: Q04DX004 (sc), vehicle: distilled water + Tween-80) 63 % of control; (dose: 300.0 mg/kg/injection, schedule: Q04DX004 (sc), vehicle: distilled water + Tween-80) 69 % of control; (dose: 600.0 mg/kg/injection, schedule: Q04DX004 (sc), vehicle: distilled water + Tween-80) 81 % of control; (dose: 1200.0 mg/kg/injection, schedule: Q04DX004 (sc), vehicle: distilled water + Tween-80) 83 % of control.
